In patent publication US9890117B2, “Benzamide compounds and related methods of use” (Northwestern University, priority 2012, dated 2018):

Molecular target: T1, SIRT2 (Homo sapiens, UniProt Q8IXJ6)
T1 construct: recombinant active enzymes SIRT1, SIRT2, and the catalytically active fragment of SIRT3
T1 sequence (Q8IXJ6 1-389): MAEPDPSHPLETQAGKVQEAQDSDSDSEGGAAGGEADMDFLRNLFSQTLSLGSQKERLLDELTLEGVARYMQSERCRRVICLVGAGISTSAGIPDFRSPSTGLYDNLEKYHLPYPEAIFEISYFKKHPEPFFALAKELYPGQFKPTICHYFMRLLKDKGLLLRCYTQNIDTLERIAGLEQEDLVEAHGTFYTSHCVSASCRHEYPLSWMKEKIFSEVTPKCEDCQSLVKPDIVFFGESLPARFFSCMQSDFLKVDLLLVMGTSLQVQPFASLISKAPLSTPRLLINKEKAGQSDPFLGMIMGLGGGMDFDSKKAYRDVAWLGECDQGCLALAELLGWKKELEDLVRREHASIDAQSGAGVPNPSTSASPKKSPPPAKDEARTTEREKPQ
Assay: Fluor-de-Lys biochemical sirtuin deacetylation assay, SIRT2
Settings: 10 μM

inhibition at 10 µM [%]	SMILES
61	CN(C)c1cccc(NC(=O)c2cccc(S(=O)(=O)N3CCCCCC3)c2)c1 [Compound 203j, 3-(azepan-1-ylsulfonyl)-N-(3-(dimethylamino)phenyl)benzamide]
30	CN(c1ccc(Br)cc1)S(=O)(=O)c1cccc(C(=O)Nc2ccc(Br)cc2F)c1 [Compound 203r, N-(4-bromo-2-fluorophenyl)-3-(N-(4-bromophenyl)-N-methylsulfamoyl)benzamide]
19	CS(=O)(=O)c1ccc(CS(=O)(=O)c2cccc(C(=O)Nc3ccc(C#N)cc3)c2)cc1 [Compound 212a, N-(4-cyanophenyl)-3-((4-(methylsulfonyl)benzyl)sulfonyl)benzamide]
92	C[C@@H](Oc1cccc(C(=O)Nc2ccc(C#N)cc2)c1)c1ccc(C#N)cc1 [Compound 216Ag, (R)—N-(4-cyanophenyl)-3-(1-(4-cyanophenyl)ethoxy)benzamide]
80	CC(=O)c1ccc(C(C)(C)Oc2cccc(C(=O)Nc3ccc(C#N)cc3)c2)cc1 [Compound 216Ai, 3-((2-(4-acetylphenyl)propan-2-yl)oxy)-N-(4-cyanophenyl)benzamide]
97	CC(=O)c1ccc(NC(=O)c2cccc(O[C@H](C)c3ccc(C(C)=O)cc3)c2)cc1 [Compound 216As, (R)—N-(4-acetylphenyl)-3-(1-(4-acetylphenyl)ethoxy)benzamide]

The remaining lines, values behind:

SMILES	inhibition at 10 µM [%]
CN(C(=O)c1cccc(S(=O)(=O)N(C)c2ccc(Br)cc2)c1)c1ccc(F)cc1F [Compound 203t, 3-(N-(4-bromophenyl)-N-methylsulfamoyl)-N-(2,4-difluorophenyl)-N-methyl-benzamide]	17
CC(Oc1cccc(C(=O)Nc2ccc(C#N)cc2)c1)c1ccc(C2COC2)cc1 (centres unmarked) [Compound 216Ah, N-(4-cyanophenyl)-3-(1-(4-(oxetan-3-yl)phenyl)ethoxy)benzamide]	41
CC(Oc1cccc(C(=O)Nc2ccc(C#N)cc2)c1)c1ccc(C2(C)COC2)cc1 (centres unmarked) [Compound 216Aj, N-(4-cyanophenyl)-3-(1-(4-(3-methyloxetan-3-yl)phenyl)ethoxy)benzamide]	43
CC(=O)c1ccc([C@@H](C)Oc2cccc(C(=O)Nc3ccc(C#N)cc3)c2)cc1 [Compound 216Ak, (R)-3-(1-(4-acetylphenyl)ethoxy)-N-(4-cyanophenyl)benzamide]	98
CC(=O)c1ccc([C@H](C)Oc2cccc(C(=O)Nc3ccc(C#N)cc3)c2)cc1 [Compound 216Al, (S)-3-(1-(4-acetylphenyl)ethoxy)-N-(4-cyanophenyl)benzamide]	60
CC(O)c1ccc([C@@H](C)Oc2cccc(C(=O)Nc3ccc(C#N)cc3)c2)cc1 (stereo partly drawn) [Compound 216Am, N-(4-cyanophenyl)-3-((1R)-1-(4-(1-hydroxyethyl)phenyl)ethoxy)benzamide]	21
CC(=O)c1ccc([C@@H](C)Oc2cncc(C(=O)Nc3ccc(C#N)cc3)c2)cc1 [Compound 216An, (R)-5-(1-(4-acetylphenyl)ethoxy)-N-(4-cyanophenyl)nicotinamide]	95
CCC(CC)Oc1cccc(C(=O)Nc2ccc(C#N)cc2)c1 [Compound 216Ao, N-(4-cyanophenyl)-3-(pentan-3-yloxy)benzamide]	37
CC(=O)c1ccc(C(Oc2cccc(C(=O)Nc3ccc(C#N)cc3)c2)C(C)C)cc1 (centres unmarked) [Compound 216Ap, 3-(1-(4-acetylphenyl)-2-methylpropoxy)-N-(4-cyanophenyl)benzamide]	44
CC(O)c1ccc([C@@H](C)Oc2cncc(C(=O)Nc3ccc(C#N)cc3)c2)cc1 (stereo partly drawn) [Compound 216Aq, N-(4-cyanophenyl)-5-((1R)-1-(4-(1-hydroxyethyl)phenyl)ethoxy)nicotinamide]	0
CC(=O)c1ccc(COc2cccc(C(=O)Nc3ccc(C#N)cc3)c2)cc1 [Compound 216Ar, 3-((4-acetylbenzyl)oxy)-N-(4-cyanophenyl)benzamide]	27
